Where two headings read alike, the source gives them in different places.
Test system: M. tuberculosis Clinical isolate: S, H, R and E resistant
Type: cell-based, Mycobacterium tuberculosis
Conditions: 72 hours

## C=C(NC(=O)C(=C)NC(=O)c1csc(C2=NC3c4csc(n4)C4NC(=O)c5csc(n5)C(C(C)(O)C(C)O)NC(=O)C5CSC(=N5)/C(=C\C)NC(=O)C(C(C)O)NC(=O)c5csc(n5)C3(CC2)NC(=O)C(C)NC(=O)C(=C)NC(=O)C(C)NC(=O)C(C(C)C)NC2C=Cc3c(C(C)O)cc(nc3C2O)C(=O)OC4C)n1)C(N)=O (stereo not drawn) [Compound of Formula I(a)]
0.5 μg/mL
  % reduction in RLU: 20.88%
5 μg/mL
  % reduction in RLU: 78.11%
10 μg/mL
  % reduction in RLU: 88.42%

## C=C(NC(=O)c1csc(C2=NC3c4csc(n4)C4NC(=O)c5csc(n5)C(C(C)(O)C(C)O)NC(=O)C5CSC(=N5)/C(=C\C)NC(=O)C(C(C)O)NC(=O)c5csc(n5)C3(CC2)NC(=O)C(C)NC(=O)C(=C)NC(=O)C(C)NC(=O)C(C(C)C)NC2C=Cc3c(C(C)O)cc(nc3C2O)C(=O)OC4C)n1)C(=O)NC(C)C(N)=O (stereo not drawn) [Compound of Formula I(b)]
0.5 μg/mL
  % reduction in RLU: 5.67%
5 μg/mL
  % reduction in RLU: 70.9%
10 μg/mL
  % reduction in RLU: 83.74%

— patent US10501492B2, “Antibiotic compounds” (priority 2009, dated 2019)
